Test results: patent US20230014151A1, “COMBINATION ANTIVIRAL THERAPY FOR MEASLES” (The Trustees of Columbia University in the City of New York, priority 2019, published 2023)
Read-outs that look alike come from different tables or passages of the source. Square brackets hold non-standard residues; d marks the D form. Peptide text beside a SMILES is read from it. * marks the point of attachment. X4 = CC(C)CCC[C@@H](C)[C@H]1CC[C@H]2[C@@H]3CC=C4C[C@@H](OC(=O)CCOCCOCCOCCOCCNC(=O)C*)CC[C@]4(C)[C@H]3CC[C@]12C; X3 = CC(C)CCC[C@@H](C)[C@H]1CC[C@H]2[C@@H]3CC=C4C[C@@H](OC(=O)C*)CC[C@]4(C)[C@H]3CC[C@]12C; Cbz = O=C(OCc1ccccc1)*

Key:
[1] = molecular target: viral glycoproteins (H and F); Nectin-4 (Measles virus, UniProt Q786F3); assay: beta-galactosidase complementation-based fusion assay, Nectin-4 target cells
[2] = molecular target: measles virus (MeV) fusion protein F, wild type, expressed on cells (measles virus) (UniProt Q786F3); assay: cell-based or functional assay
[3] = Nectin4 IC50, Table 3 (extended version)
[4] = IC50, Table 2 (salient peptides), Nectin-4 target cells

| Compound | IC50 [1, 3] [µM] | IC90 ([1]; read-out: Nectin4 IC90) [µM] | IC90 [1] [µM] | IC50, beta-galactosidase complementation-based fusion assay, Nectin-4 target cells [2] [µM] | IC90, beta-galactosidase complementation-based fusion assay, Nectin-4 target cells [2] [µM] | other results |
| --- | --- | --- | --- | --- | --- | --- |
| CC[C@H](C)[C@H](NC(=O)[C@H](C)NC(=O)[C@H](CC(N)=O)NC(=O)CNC(=O)[C@H](CC(C)C)NC(=O)[C@H](CC(N)=O)NC(=O)[C@@H](NC(=O)CNC(=O)[C@@H](NC(=O)[C@H](CC(=O)O)NC(=O)[C@H](CC(C)C)NC(=O)[C@H](CCCNC(=N)N)NC(=O)[C@H](CCC(=O)O)NC(=O)[C@H](CC(C)C)NC(=O)[C@H](CO)NC(=O)[C@@H](NC(=O)[C@@H]1CCCN1C(=O)[C@@H]1CCCN1C(=O)CNC(=O)[C@H](CO)NC(=O)CNC(=O)[C@H](CO)NC(=O)CNC(=O)CNC(=O)[C@H](Cc1ccccc1)NC(=O)[C@@H](Cc1ccccc1)NC(=O)OCc1ccccc1)[C@@H](C)CC)C(C)C)[C@@H](C)O)C(=O)N[C@@H](C)C(=O)N[C@@H](CCCCN)C(=O)N[C@@H](CC(C)C)C(=O)N[C@@H](CCC(=O)O)C(=O)N[C@@H](CC(=O)O)C(=O)N[C@@H](C)C(=O)N[C@@H](CCCCN)C(=O)N[C@@H](CCC(=O)O)C(=O)N[C@@H](CC(C)C)C(=O)N[C@@H](CC(C)C)C(=O)N[C@@H](CCC(=O)O)C(=O)N[C@@H](CO)C(=O)N[C@@H](CO)C(=O)N[C@@H](CC(=O)O)C(=O)N[C@@H](CCC(N)=O)C(=O)N[C@H](C(=O)N[C@@H](CC(C)C)C(=O)N[C@@H](CCCNC(=N)N)C(=O)N[C@@H](CS)C(=O)O)[C@@H](C)CC [FIP-HRC450-485 (no GSGSG)] | 2.77 ± 1.64 | 6.37 ± 4.18 | – | – | – | – |
| CC[C@H](C)[C@H](NC(=O)[C@H](C)NC(=O)[C@H](CC(N)=O)NC(=O)CNC(=O)[C@H](CC(C)C)NC(=O)[C@H](CC(N)=O)NC(=O)[C@@H](NC(=O)CNC(=O)[C@@H](NC(=O)[C@H](CC(=O)O)NC(=O)[C@H](CC(C)C)NC(=O)[C@H](CCCNC(=N)N)NC(=O)[C@H](CCC(=O)O)NC(=O)[C@H](CC(C)C)NC(=O)[C@H](CO)NC(=O)[C@@H](NC(=O)[C@@H]1CCCN1C(=O)[C@@H]1CCCN1C(=O)CNC(=O)[C@H](CO)NC(=O)CNC(=O)[C@H](CO)NC(=O)CNC(=O)CNC(=O)[C@H](Cc1ccccc1)NC(=O)[C@@H](Cc1ccccc1)NC(=O)OCc1ccccc1)[C@@H](C)CC)C(C)C)[C@@H](C)O)C(=O)N[C@@H](C)C(=O)N[C@@H](CCCCN)C(=O)N[C@@H](CC(C)C)C(=O)N[C@@H](CCC(=O)O)C(=O)N[C@@H](CC(=O)O)C(=O)N[C@@H](C)C(=O)N[C@@H](CCCCN)C(=O)N[C@@H](CCC(=O)O)C(=O)N[C@@H](CC(C)C)C(=O)N[C@@H](CC(C)C)C(=O)N[C@@H](CCC(=O)O)C(=O)N[C@@H](CO)C(=O)N[C@@H](CO)C(=O)N[C@@H](CC(=O)O)C(=O)N[C@@H](CCC(N)=O)C(=O)N[C@H](C(=O)N[C@@H](CC(C)C)C(=O)N[C@@H](CCCNC(=N)N)C(=O)NCC(=O)N[C@@H](CO)C(=O)NCC(=O)N[C@@H](CO)C(=O)NCC(=O)N[C@@H](CS)C(=O)O)[C@@H](C)CC [FIP-HRC450-485] | 4.24 ± 0.812 | > 10 | > 10 | – | – | IC50 [1, 4]: 4.24 ± 0.812 µM |
| CC(C)CCC[C@@H](C)[C@H]1CC[C@H]2[C@@H]3CC=C4C[C@@H](OC(=O)CSC[C@H](NC(=O)CNC(=O)[C@H](CO)NC(=O)CNC(=O)[C@H](CO)NC(=O)CNC(=O)CNC(=O)[C@H](Cc5ccccc5)NC(=O)[C@@H](Cc5ccccc5)NC(=O)OCc5ccccc5)C(=O)O)CC[C@]4(C)[C@H]3CC[C@]12C [FIP-chol] (Cbz-[dF]FGGSGSGC(X3)-OH) | > 10 | > 10 | 7.615 ± 0.013 | – | – | IC50 [1, 4]: 4 ± 1.08 µM |
| CC(C)CCC[C@@H](C)[C@H]1CC[C@H]2[C@@H]3CC=C4C[C@@H](OC(=O)CCOCCOCCOCCOCCNC(=O)CSC[C@H](NC(=O)CNC(=O)[C@H](CO)NC(=O)CNC(=O)[C@H](CO)NC(=O)CNC(=O)CNC(=O)[C@H](Cc5ccccc5)NC(=O)[C@@H](Cc5ccccc5)NC(=O)OCc5ccccc5)C(=O)O)CC[C@]4(C)[C@H]3CC[C@]12C [FIP-peg4-chol] (Cbz-[dF]FGGSGSGC(X4)-OH) | – | 7.615 ± 0.013 | 7.615 ± 0.013 | – | – | – |
| CC[C@H](C)[C@H](NC(=O)[C@H](C)NC(=O)[C@H](CC(N)=O)NC(=O)CNC(=O)[C@H](CC(C)C)NC(=O)[C@H](CC(N)=O)NC(=O)[C@@H](NC(=O)CNC(=O)[C@@H](NC(=O)[C@H](CC(=O)O)NC(=O)[C@H](CC(C)C)NC(=O)[C@H](CCCNC(=N)N)NC(=O)[C@H](CCC(=O)O)NC(=O)[C@H](CC(C)C)NC(=O)[C@H](CO)NC(=O)[C@@H](NC(=O)[C@@H]1CCCN1C(=O)[C@@H]1CCCN1C(C)=O)[C@@H](C)CC)C(C)C)[C@@H](C)O)C(=O)N[C@@H](C)C(=O)N[C@@H](CCCCN)C(=O)N[C@@H](CC(C)C)C(=O)N[C@@H](CCC(=O)O)C(=O)N[C@@H](CC(=O)O)C(=O)N[C@@H](C)C(=O)N[C@@H](CCCCN)C(=O)N[C@@H](CCC(=O)O)C(=O)N[C@@H](CC(C)C)C(=O)N[C@@H](CC(C)C)C(=O)N[C@@H](CCC(=O)O)C(=O)N[C@@H](CO)C(=O)N[C@@H](CO)C(=O)N[C@@H](CC(=O)O)C(=O)N[C@@H](CCC(N)=O)C(=O)N[C@H](C(=O)N[C@@H](CC(C)C)C(=O)N[C@@H](CCCNC(=N)N)C(=O)NCC(=O)N[C@@H](CO)C(=O)NCC(=O)N[C@@H](CO)C(=O)NCC(=O)N[C@@H](CSCC(=O)NCCOCCOCCOCCOCCC(=O)O[C@H]1CC[C@@]2(C)C(=CC[C@H]3[C@@H]4CC[C@H]([C@H](C)CCCC(C)C)[C@@]4(C)CC[C@@H]32)C1)C(=O)O)[C@@H](C)CC [HRC450-485-peg4-chol] | – | 0.856 ± 0.0786 | 0.856 ± 0.0786 | – | – | – |
| CC[C@H](C)[C@H](NC(=O)[C@H](C)NC(=O)[C@H](CC(N)=O)NC(=O)CNC(=O)[C@H](CC(C)C)NC(=O)[C@H](CC(N)=O)NC(=O)[C@@H](NC(=O)CNC(=O)[C@@H](NC(=O)[C@H](CC(=O)O)NC(=O)[C@H](CC(C)C)NC(=O)[C@H](CCCNC(=N)N)NC(=O)[C@H](CCC(=O)O)NC(=O)[C@H](CC(C)C)NC(=O)[C@H](CO)NC(=O)[C@@H](NC(=O)[C@@H]1CCCN1C(=O)[C@@H]1CCCN1C(C)=O)[C@@H](C)CC)C(C)C)[C@@H](C)O)C(=O)N[C@@H](C)C(=O)N[C@@H](CCCCN)C(=O)N[C@@H](CC(C)C)C(=O)N[C@@H](CCC(=O)O)C(=O)N[C@@H](CC(=O)O)C(=O)N[C@@H](C)C(=O)N[C@@H](CCCCN)C(=O)N[C@@H](CCC(=O)O)C(=O)N[C@@H](CC(C)C)C(=O)N[C@@H](CC(C)C)C(=O)N[C@@H](CCC(=O)O)C(=O)N[C@@H](CO)C(=O)N[C@@H](CO)C(=O)N[C@@H](CC(=O)O)C(=O)N[C@@H](CCC(N)=O)C(=O)N[C@H](C(=O)N[C@@H](CC(C)C)C(=O)N[C@@H](CCCNC(=N)N)C(=O)NCC(=O)N[C@@H](CO)C(=O)NCC(=O)N[C@@H](CO)C(=O)NCC(=O)N[C@@H](CS)C(=O)O)[C@@H](C)CC [HRC450-485] | > 10 | > 10 | > 10 | – | – | IC50 [1, 4]: > 10 µM |
| CC[C@H](C)[C@H](NC(=O)[C@H](C)NC(=O)[C@H](CC(N)=O)NC(=O)CNC(=O)[C@H](CC(C)C)NC(=O)[C@H](CC(N)=O)NC(=O)[C@@H](NC(=O)CNC(=O)[C@@H](NC(=O)[C@H](CC(=O)O)NC(=O)[C@H](CC(C)C)NC(=O)[C@H](CCCNC(=N)N)NC(=O)[C@H](CCC(=O)O)NC(=O)[C@H](CC(C)C)NC(=O)[C@H](CO)NC(=O)[C@@H](NC(=O)[C@@H]1CCCN1C(=O)[C@@H]1CCCN1C(C)=O)[C@@H](C)CC)C(C)C)[C@@H](C)O)C(=O)N[C@@H](C)C(=O)N[C@@H](CCCCN)C(=O)N[C@@H](CC(C)C)C(=O)N[C@@H](CCC(=O)O)C(=O)N[C@@H](CC(=O)O)C(=O)N[C@@H](C)C(=O)N[C@@H](CCCCN)C(=O)N[C@@H](CCC(=O)O)C(=O)N[C@@H](CC(C)C)C(=O)N[C@@H](CC(C)C)C(=O)N[C@@H](CCC(=O)O)C(=O)N[C@@H](CO)C(=O)N[C@@H](CO)C(=O)N[C@@H](CC(=O)O)C(=O)N[C@@H](CCC(N)=O)C(=O)N[C@H](C(=O)N[C@@H](CC(C)C)C(=O)N[C@@H](CCCNC(=N)N)C(=O)NCC(=O)N[C@@H](CO)C(=O)NCC(=O)N[C@@H](CO)C(=O)NCC(=O)N[C@@H](CSC1CC(=O)N(CCC(=O)NCCOCCOCCOCCOCCOCCOCCOCCOCCOCCOCCOCCNC(=O)CCN2C(=O)CC(SC[C@H](NC(=O)CNC(=O)[C@H](CO)NC(=O)CNC(=O)[C@H](CO)NC(=O)CNC(=O)[C@H](CCCNC(=N)N)NC(=O)[C@H](CC(C)C)NC(=O)[C@@H](NC(=O)[C@H](CCC(N)=O)NC(=O)[C@H](CC(=O)O)NC(=O)[C@H](CO)NC(=O)[C@H](CO)NC(=O)[C@H](CCC(=O)O)NC(=O)[C@H](CC(C)C)NC(=O)[C@H](CC(C)C)NC(=O)[C@H](CCC(=O)O)NC(=O)[C@H](CCCCN)NC(=O)[C@H](C)NC(=O)[C@H](CC(=O)O)NC(=O)[C@H](CCC(=O)O)NC(=O)[C@H](CC(C)C)NC(=O)[C@H](CCCCN)NC(=O)[C@H](C)NC(=O)[C@@H](NC(=O)[C@H](C)NC(=O)[C@H](CC(N)=O)NC(=O)CNC(=O)[C@H](CC(C)C)NC(=O)[C@H](CC(N)=O)NC(=O)[C@@H](NC(=O)CNC(=O)[C@@H](NC(=O)[C@H](CC(=O)O)NC(=O)[C@H](CC(C)C)NC(=O)[C@H](CCCNC(=N)N)NC(=O)[C@H](CCC(=O)O)NC(=O)[C@H](CC(C)C)NC(=O)[C@H](CO)NC(=O)[C@@H](NC(=O)[C@@H]3CCCN3C(=O)[C@@H]3CCCN3C(C)=O)[C@@H](C)CC)C(C)C)[C@@H](C)O)[C@@H](C)CC)[C@@H](C)CC)C(=O)O)C2=O)C1=O)C(=O)O)[C@@H](C)CC (stereo partly shown) [[HRC450-485]2-peg11] | – | > 10 | > 10 | – | – | IC50 [1]: > 4 µM; IC50 ([1]; read-out: Nectin4 IC50, Table 3 (extended version)): > 4 µM |
| FIP (no GSGSG), Monomer N-Maleimide (peptide) | – | – | – | > 1 | > 1 | – |
| FIP (peptide) | – | – | – | 9.72 | > 10 | – |
| FIP-HRC450-485 (no GSGSG) (peptide) | – | – | – | 2.77 | 6.37 | – |
| FIP-HRC450-485 (no GSGSG), Monomer N-Maleimide (peptide) | – | – | – | > 0.7 | > 10 | – |
| FIP-HRC450-485, Monomer N-Maleimide (peptide) | – | – | – | > 1 | > 1 | – |
| FIP-HRC450-485-chol (no GSGSG) (peptide) | – | – | – | 0.0859 | 0.54 | – |
